Results from a melting point compilation (Tetko et al.; mined from patent text by program, amines drawn as free bases though some values may be those of a salt).

First: COc1cc(Nc2c(C#N)cnc3cc(Oc4ccncc4)c(OC)cc23)c(Cl)cc1Cl
Second: CCCOC(=O)c1c(Cn2ccnc2)nc2cc(OC)c(OC)cc2c1-c1ccc(OC)c(OC)c1
The melting point of the first is higher: 267 to 269 °C for the first, 166 to 168 °C for the second.

First: COc1ccc2c(c1)CCN(C(=O)OCc1ccccc1)C21CCC(C(=O)O)(C(=O)O)CC1
Second: O=C(NCc1ccc(Cl)cc1)c1cn2c3c(cc(CN4CCOCC4)cc3c1=O)CN(Cc1ccccc1)C2
The melting point of the first is lower: 193 to 194 °C for the first, 203 to 205 °C for the second.

First: O=C(O)c1ccc2c(c1)Sc1ccc(F)cc1C(O)C2 (centres undefined)
Second: O=C(O)Cc1c(C(=O)c2cccc(Cl)c2)[nH]c2cc(Cl)ccc12
The melting point of the first is higher: 204 to 210 °C for the first, 199 to 201 °C for the second.

Compared with CCCCCC1COc2cc(CCC3=Cc4cc(F)cc(F)c4OC3)c(F)cc2C1 (centres undefined), CCCCCc1c(C=CC(=O)OC)nc(C(C)C)c(CO)c1-c1ccc(F)cc1 is lower in melting point: 84 °C for the first, 82 to 83 °C for the second.

First: O=c1c2ccccc2nc(-c2cc(-c3ccc(Cl)cc3)c(N3CCOCC3)s2)n1-c1ccc(Cl)cc1
Second: O=C(O)COc1c(Br)cc(-c2ccc(-c3c(Cc4ccccc4)sc4ccccc34)cc2)cc1Br
The melting point of the first is higher: 240 to 243 °C for the first, 183 to 185 °C for the second.

First: CCSN(C)C(=O)Nc1ccc(Br)cc1
Second: O=C(Nc1ccc(F)cc1)c1ccccc1Cl
The melting point of the first is lower: < 50 °C for the first, 93.3 to 96.2 °C for the second.

Compared with CCOC(=O)c1c(C)nn(-c2ccc(F)cc2)c1C, COc1ccc2c(c1)c(SC)c(C(N)=O)n2C is higher in melting point: 59 to 60 °C for the first, 204 to 206 °C for the second.

Compared with Cn1cc(Cc2cc3cc(C(F)(F)F)ccc3n2S(=O)(=O)c2cccc(C(C)(C)C)c2)cc1C(=O)O, O=C(N[C@H]1CCN(C(=O)c2cc(C(F)(F)F)cc(C(F)(F)F)c2)[C@H](Cc2ccccc2)C1)c1ccnc2ccccc12 is higher in melting point: 160 °C for the first, 187 °C for the second.

First: CCCNC(=O)C1(O)CC(O)C(O)C(O)C1 (centres undefined)
Second: CCCNC(=O)Nc1ccccc1C(=O)OCC
The melting point of the first is higher: 132 to 133 °C for the first, 98 to 99 °C for the second.

Compared with CCCc1nc2c(N)nc3cc(OCCCCCCNS(C)(=O)=O)ccc3c2n1CCCCNS(C)(=O)=O, CCCCNC(=O)OCCCc1ccc(OCCOC)cc1Oc1ncc(C(F)(F)F)cc1Cl is lower in melting point: 138 to 140 °C for the first, 91.7 to 91.8 °C for the second.

Compared with O=C(CCc1ccccc1)NC(NC(=S)Nc1cccc([N+](=O)[O-])c1)C(Cl)(Cl)Cl (centres undefined), Cc1nc(-c2ccccc2)nc(-c2cccc([N+](=O)[O-])c2)c1C(C)Br (centres undefined) is lower in melting point: 171 to 173 °C for the first, 133 to 134 °C for the second.

First: N#CC1=C(C2CCN(C(=O)c3ccccc3)CC2)Nc2n[nH]cc2C1c1cccc2nonc12 (centres undefined)
Second: O=C(c1ccccc1)N1CCN(c2c(Cl)cncc2Cl)CC1
The melting point of the first is higher: 228 °C for the first, 132 to 134 °C for the second.

First: CC(O)c1ccc2occ(C#N)c(=O)c2c1 (centres undefined)
Second: CC(=O)Nc1ccc2c(c1)CCC(CC#N)C2=O (centres undefined)
The melting point of the first is lower: 147 to 148 °C for the first, 189 to 190 °C for the second.

CCn1ncnc1COc1nn2c(-c3c(F)cccc3F)nnc2cc1C(C)(C)C and CC(C)(C)CN1C(=O)N(CC(=O)O)N=C(c2ccccc2Cl)c2cc(Cl)ccc21 cannot be ordered by melting point: 182 °C for the first, 181 to 183 °C for the second.

First: CNC(=O)C(C)Oc1ncn(-c2cccc(Cl)c2)n1 (centres undefined)
Second: COCC(COC)Nc1c(C)nn2c(-c3ccc(Cl)cc3Cl)cccc12
The melting point of the first is higher: 120 to 122 °C for the first, 86.9 to 90 °C for the second.

First: Nc1cc2c(cc1N)C1CC2CN(C(=O)C(F)(F)F)C1
Second: Nc1c(Cl)ccc2c1C=C(C(=O)O)C(C(F)(F)F)O2 (centres undefined)
The melting point of the first is lower: 129 to 131 °C for the first, 208 to 210 °C for the second.

Compared with N#Cc1ccc(-c2nc(COc3ccc(CCCn4ccnc4)cc3)co2)s1, CCCc1ccccc1OCCCOc1ccc2c(=O)cc(C#N)oc2c1 is higher in melting point: 73 to 74 °C for the first, 85 to 86 °C for the second.

Compared with ON=C(Cc1cnccn1)c1ccc(Cl)cc1, O=C1OC(COc2ccc(CO)cc2)CN1c1ccc(Cl)cc1 (centres undefined) is higher in melting point: 134 °C for the first, 149 to 150 °C for the second.

First: C=C(C)c1cc(S(=O)(=O)c2ccc(N)cc2)cc(N2CCCC2)n1
Second: COc1cc(NS(=O)(=O)c2ccc(Cl)cc2)c(C(=O)O)cc1OC
The melting point of the first is higher: 200 to 201 °C for the first, 168 to 169 °C for the second.

First: CC(=O)NC(=Cc1c[nH]c2cc(C)ccc12)C(=O)O
Second: CC(=O)Oc1ccc(C(=O)c2ccc(C)c(OC(C)=O)c2)cc1
The melting point of the first is higher: 204 to 206 °C for the first, 60 to 64 °C for the second.

First: Cc1cc(Br)cc(C)c1OCC1CCC[N+](C)([O-])C1 (centres undefined)
Second: COc1cc(OC)c2c(=O)[nH]c(-c3cc(C)c(OCCCCN4CCCC4)c(C)c3)nc2c1
The melting point of the first is higher: 210 to 211 °C for the first, 180 to 181 °C for the second.

Going from COc1cc(Cl)c(/C(=N\O)c2ccccc2F)cc1Cl to Cc1ccccc1Sc1c(O)c2c(Cl)cc(Cl)cc2[nH]c1=O, the melting point rises from 188 °C to > 300 °C.

First: Cc1ncc([N+](=O)[O-])n1CCN1C(=O)C2c3cccc4cccc(c34)C2C1=O (centres undefined)
Second: O=C1CCCN1c1cccc(-c2ccnc3c([N+](=O)[O-])cnn23)c1
The melting point of the first is lower: 183 to 185 °C for the first, 226 to 228 °C for the second.

Compared with CCN1CCc2cc([N+](=O)[O-])ccc21, c1ccc2c(c1)cc1n2CC2(CC1)CO2 (centres undefined) is higher in melting point: 97 to 98 °C for the first, 104 to 107 °C for the second.

First: Cc1ccc(-n2nc(C(C)(C)C)cc2NC(=O)Nc2ccc(OCCCc3ccncc3)c3ccccc23)cc1
Second: O=C(c1ccccc1)c1ccc(OCCCCNS(=O)(=O)c2ccc(Br)cc2)cc1
The melting point of the first is higher: 205 to 207 °C for the first, 71 to 73 °C for the second.

Compared with COc1cccc2c1C(=O)c1c(O)c3c(c(O)c1C2=O)CC(O)(C(C)=O)CC3O (centres undefined), CCCOc1ccccc1C1=NC(=O)C2=NC=NC2=N1 is higher in melting point: 217 to 221 °C for the first, 254 to 259 °C for the second.

Compared with CN(C)Cc1cc(C(C)(C)c2cc(CN(C)C)c(O)c(CN(C)C)c2)cc(CN(C)C)c1O, Cc1c(C)c2c(c(C)c1NC(=O)CC(C)(C)C)C(c1ccc(CCCO)cc1)CO2 (centres undefined) is higher in melting point: 88 to 90 °C for the first, 119 to 120 °C for the second.

First: CC1(C)C=C(c2ccc(C(=O)N3Cc4cccn4Cc4ccccc43)cc2)CC(C)(C)C1
Second: O=C1N(Nc2ccccc2)C(=S)OC12c1ccccc1-c1ccccc12
The melting point of the first is lower: 142 to 143 °C for the first, 187 to 189 °C for the second.

First: C[C@@H](Cc1c2n(c3ccc(OC4CC4)cc13)CCC2)NC(=O)OC(C)(C)C
Second: COC(=O)C1CN(C(=O)OC(C)(C)C)CCN1C(=O)/C=C/c1ccc(Sc2ccc3c(c2)OCCO3)c(C(F)(F)F)c1 (centres undefined)
The melting point of the first is lower: 83 to 84 °C for the first, 85 to 87 °C for the second.

CN1CCN(C2CCN(c3ccc(Nc4ncc5cc6ccccc6n5n4)cc3)CC2)CC1 and O=C(O)c1cccc(Nc2nc(Oc3ccccc3)nc(Oc3cccc(Cl)c3)n2)c1 cannot be ordered by melting point: 226 to 229 °C for the first, 227 to 230 °C for the second.

First: C=CCc1c2c(cc(OCc3ccccc3)c1C(C)(C)C)CC(C)(C)O2
Second: C=CCn1c(=O)n(S(=O)(=O)c2ccc(Cl)cc2)c(=O)c2ccc(Cl)cc21
The melting point of the first is lower: 73 to 74 °C for the first, 161 to 163 °C for the second.

First: CC[C@@H](COC)n1cc(Cl)nc(N2CCc3cc(Br)cc(Cl)c32)c1=O
Second: Clc1cc(Cl)nc(N2CCSCC2)n1
The melting point of the first is higher: 121 to 122 °C for the first, 79.5 to 81.5 °C for the second.

First: Cc1nc(-c2ccc(Cn3sccc3=O)cc2)cs1
Second: CNC(=O)c1ncn2c(=O)n(CCCl)nnc12
The melting point of the first is higher: 150 to 152 °C for the first, 120 to 122 °C for the second.

First: Nc1nc(Cl)c(NC=O)c(N[C@@H]2CC=C(CO)C2)n1
Second: C=C1CC2C(CCC3(C)C2CCC3(OC(C)=O)C(=O)COC(C)=O)C2(C)CCC(=O)C=C12 (centres undefined)
The melting point of the first is lower: 148 to 150 °C for the first, 227 to 228 °C for the second.

With CC(=O)C1CCC2C3CCC4CC(OC(=O)C(Cl)(Cl)Cl)CCC4(C)C3C(=O)CC12C (centres undefined) the melting point was 126 to 127 °C.
